Assay results taken from US20060147456A1, “Induction of apoptosis in toll-like receptor expressing tumor cells” (priority 2004, published 2006).

Tests used:
BT483 = test: Cell recovery by crystal violet staining; type: cell-based, human; conditions: 50 μg/ml Poly IC, 72 h
Experimental: (§1) Cell recovery after treatment with TLR ligands was measured by crystal violet staining (Sigma-Aldrich). Cells were plated at 10^4 cells/well in 96 well plates. After 72 hours of culture either with or without TLR ligand, the cells were washed with PBS, fixed in 6% formaldehyde (Sigma-Aldrich) for 20 minutes, washed twice, and then stained with 0.1% crystal violet for 10 minutes. After washes and incubation in 1% SDS for 1 hour, the absorbance was read at 605 nm on a Vmax plate reader (Molecular Devices, Sunnyvale, Calif.). Annexin V staining was performed with an annexin-FITC apoptosis detection kit (BD Pharmingen, San Diego, Calif.) according to the manufacturer's instructions. Sub-diploid cells were detected by staining with 3 μg/mL propidium iodide (PI) (Molecular probes, Eugene, Oreg.), after overnight permeabilization in 70% ethanol. Fluorescence was analyzed by flow cytometry on a FACScalibur (Becton Dickinson, Mountain View, Calif.) equipped with a doublet-discrimination module and using Celiquest Pro software (Becton Dickinson).
(§2) Four human breast tumor cell lines, Cama-1, SW527, BT483 and MCF-7, were analyzed for cell death in response to Poly IC. Cells were cultured for 72 hours with 5 μg/ml PGN, 50 μg/ml Poly IC or 10 μg/ml LPS. Control cells were cultured with PBS. Cytotoxicity was assessed by crystal violet staining and expressed as a percent of control.

Cama-1 = test: Cell recovery by crystal violet staining; type: cell-based, human; conditions: 50 μg/ml Poly IC, 72 h
Experimental: as §1, §2

MCF-7 = test: Cell recovery by crystal violet staining; type: cell-based, human; conditions: 50 μg/ml Poly IC, 72 h
Experimental: as §1, §2

SW527 = test: Cell recovery by crystal violet staining; type: cell-based, human; conditions: 50 μg/ml Poly IC, 72 h
Experimental: as §1, §2

[1] = test system: human primary breast tumor cells; test: Apoptosis by PI staining (subG0/G1 cells); type: cell-based; conditions: 50 μg/ml Poly IC, 48 h; PBS 19.5%
Text: Human primary breast tumor sample was obtained from the Centre Léon Bérard (Lyon, France) in agreement with the Hospital bioethical protocols. A single cell suspension was obtained after digestion with Collagenase A (Sigma-Aldrich) and washes and enrichment in Human Epithelial Antigen (HEA) positive cells using HEA-microbeads (Mylteni Biotech, Bergisch Gladbach, Germany) according to manufacturer's instructions. The final single cell suspension contained more than 80% HEA positive cells and less than 2% CD4^+ hematopoietic contaminants.
Cell recovery after treatment with TLR ligands was measured by crystal violet staining (Sigma-Aldrich). Cells were plated at 10^4 cells/well in 96 well plates. […] Sub-diploid cells were detected by staining with 3 μg/mL propidium iodide (PI) (Molecular probes, Eugene, Oreg.), after overnight permeabilization in 70% ethanol. Fluorescence was analyzed by flow cytometry on a FACScalibur (Becton Dickinson, Mountain View, Calif.) equipped with a doublet-discrimination module and using Celiquest Pro software (Becton Dickinson).
We then tried to determine the effect that Poly IC has on human primary breast tumor cells. […] Apoptosis was measured by PI staining. […]

eye tumors = test: Eye tumor development in TRP-Tag/IFNαβγR−/− mice; type: in vivo, mouse; conditions: 100 μg/dose intravenous on days 21, 23, 25, 27 and 29
Experimental: We analyzed the effect of IFN on Poly IC induced apoptosis in vivo. TRP-Tag mice express SV40 T antigen in the retinal pigmented epithelium and typically develop eye tumors with complete penetrance within weeks from birth.
In these experiments, fourteen to sixteen TRP-Tag/IFNαβγR−/− mice per experiment (these are TPR-Tag mice that had been crossed to mice simultaneously deficient in the receptor for type I interferons (IFNαβR) and the receptor for type II interferon (IFNγR)) were treated on days 21, 23, 25, 27 and 29 by intravenous injections of either Poly IC (100 μg/dose) or PBS. The kinetics of visible eye tumor development was monitored 2-3 times per week.

[2] = test system: phosphorylated Stat1 (tyrosine 701); test: Western Blot of Cama-1 cell lysate for phosphorylated Stat1; type: cell-based, human; conditions: 5 μg/ml Poly IC
Experimental: Cama-1 cells were lysed in 1% Nonidet-P40-containing buffer. 20 μg total protein was loaded per lane on SDS-Polyacrylamide gels (Invitrogen). Western Blots (WB) were performed with standard techniques using the antibodies described above. Anti IRAK-4 monoclonal antibodies were generated in the laboratory according to the protocol described in Fossiez et al., “T cell interleukin-17 induces stromal cells to produce proinflammatory and hematopoietic cytokines”, J. Exp. Med., vol. 183(6), pp. 2593-2603 (1996).
The involvement of type 1 interferon in TLR3 mediated apoptosis was evaluated. Cama-1 cells were incubated with 5 μg/ml Poly IC for either 0 hours, 1 hour, 6 hours, 18 hours or 24 hours. The presence of IFN-β, phosphorylated Stat1 (tyrosine 701) (P-Stat-1) and total Stat-1 in the cell lysate were analyzed by Western Blot.

SKBr3 cells = test: Apoptosis analysis of SKBr3 cells; type: cell-based; conditions: for percentage of SKBr3 cells induced to apoptosis by Poly IC: summary statement
Experimental: We tried to further investigate whether any synergy exists between TLR3 ligands and type I IFN. The primary breast carcinoma cells SKBr3 were plated in 6 well plates at 3×10^5 cells per well. After overnight adherence, siRNA transfections were performed for 5 hours in OptiMEM medium (Life technologies) containing 3μg/mL lipofectamine 2000 (Invivogen) and 100 nM siRNA. Cells were transfected with either MOCK (water), TLR3 siRNA or PKR siRNA. Cells were then washed and cultured for 72 hours in complete medium before 24 hour treatment with 50 μg/ml Poly IC and apoptosis analysis.
In another experiment, we tried to determine whether IFN and Poly IC acted synergistically to induce apoptosis. SKBr3 cells were untreated or pre-treated with either 10 U/ml or 100 U/ml of a low dose mixture of IFN-α or IFN-β. Poly IC was administered in the following doses: 0, 0.5, 5 and 50 μg/ml for 48 hours.

Substance: polyinosinic-polycytidylic acid [Poly IC]
- cell recovery, percent of control (BT483): 67%
- cell recovery, percent of control (Cama-1): 33%
- cell recovery, percent of control (MCF-7): 100%
- cell recovery, percent of control (SW527): 75%
- cells with low DNA content (subG0/G1 cells) [1]: 38.6%
- delay of appearance of eye tumors compared to PBS (eye tumors): up to 21 days
- time of maximum Stat1 phosphorylation [2]: 6 h
- Stat1 phosphorylation ([2]; 0 to 24 hours): observed
- percentage of apoptotic cells (SKBr3 cells; SKBr3, 0.5 μg/ml Poly IC 48 h, no IFN pre-treatment): 15%
- percentage of apoptotic cells (SKBr3 cells; SKBr3, 0.5 μg/ml Poly IC 48 h, pre-treated IFN-α/β 10 U/ml): 45%
- percentage of apoptotic cells (SKBr3 cells; SKBr3, 0.5 μg/ml Poly IC 48 h, pre-treated IFN-α/β 100 U/ml): 55%
- percentage of apoptotic cells (SKBr3 cells; SKBr3, 5 μg/ml Poly IC 48 h, no IFN pre-treatment): 20%
- percentage of apoptotic cells (SKBr3 cells; SKBr3, 5 μg/ml Poly IC 48 h, pre-treated IFN-α/β 10 U/ml): 55%
- percentage of apoptotic cells (SKBr3 cells; SKBr3, 5 μg/ml Poly IC 48 h, pre-treated IFN-α/β 100 U/ml): 60%
- percentage of apoptotic cells (SKBr3 cells; SKBr3, 50 μg/ml Poly IC 48 h, no IFN pre-treatment): 20%
- percentage of apoptotic cells (SKBr3 cells; SKBr3, 50 μg/ml Poly IC 48 h, pre-treated IFN-α/β 10 U/ml): 55%
- percentage of apoptotic cells (SKBr3 cells; SKBr3, 50 μg/ml Poly IC 48 h, pre-treated IFN-α/β 100 U/ml): 60%
- Poly IC concentration at which cells become sensitive to apoptosis, IFN pre-treated versus non-pretreated cells (SKBr3 cells; SKBr3, type I IFN pre-treatment): one hundred fold lower
- percentage of apoptotic cells (SKBr3 cells; SKBr3 MOCK group, 24 h, 50 μg/ml Poly IC, untreated 10%): 22%
- percentage of apoptotic cells (SKBr3 cells; SKBr3 PKR siRNA group, 24 h, 50 μg/ml Poly IC, untreated 12%): 22%
- percentage of apoptotic cells (SKBr3 cells; SKBr3 TLR3 siRNA group, 24 h, 50 μg/ml Poly IC, untreated 8%): 13%
- percentage of SKBr3 cells induced to apoptosis by Poly IC (SKBr3 cells; after type I IFN pre-treatment): 66%
- percentage of SKBr3 cells induced to apoptosis by Poly IC (SKBr3 cells; without type I IFN pre-treatment): 22%
